PubChem BioAssay AID1996
Values after ≈ are worked out from the molar mass of the structure shown.

Conditions: buffer; pH 7.4; 200.0 µM

SMILES | solubility kinetic
O=C(Nc1nc2ccccc2[nH]1)c1ccc(Br)o1 | 15.5 µg/mL (≈ 50.6 µM)
CC(=O)Nc1ccc(C(=O)COC(=O)c2cc(C)oc2C)c(F)c1 | 7.8 µg/mL (≈ 23.4 µM)
CCOC(=O)C1=C(COC(=O)c2cccnc2SC)NC(=O)NC1C (stereo not given) | > 54.8 µg/mL
COc1ccc(NC(=O)C(c2ccc(Cl)cc2)C(C)C)cn1 (stereo not given) | 13.5 µg/mL (≈ 42.3 µM)
O=C(O)Cc1c[nH]c2ccccc12 | > 26.3 µg/mL
CCOC(=O)c1sc(S(C)=O)c2c1CCc1conc1-2 (stereo not given) | > 46.7 µg/mL
O=C(Nc1ccc2[nH]c(=O)[nH]c2c1)c1ccc(Br)o1 | 8.3 µg/mL (≈ 25.8 µM)
O=C(O)c1nc(NCCc2ccccc2)ncc1Cl | > 41.7 µg/mL
Cc1cccc(NC(=O)CCCN2C(=O)C3CC=CCC3C2=O)c1 (stereo not given) | > 49 µg/mL
Cl.O=[N+]([O-])c1cc(CN(CCO)CCO)ccc1O | > 43.9 µg/mL
NC(=S)N/N=C/c1c[nH]c2ccccc12 | > 32.7 µg/mL
O=C(Nc1ccccc1)Nc1cccc(-c2cn3cccnc3n2)c1 | 1 µg/mL (≈ 3.04 µM)
Cl.Nc1nc2nc[nH]c2c(=O)[nH]1 | 21.5 µg/mL
Cc1nc(SCC(N)=O)c(C#N)c(C)c1C | 4.4 µg/mL (≈ 18.7 µM)
O=C(CSc1nnc2ccccn12)NC(=O)c1ccccc1 | > 46.9 µg/mL
O=C(O)c1ccccc1-c1ccccc1C(=O)NCc1ccccc1F | 38.4 µg/mL (≈ 110 µM)
COc1ccc(OC)c(NC(=O)Nc2cccnc2)c1 | > 41 µg/mL
Cc1ccc(-c2csc(NC3OC(=O)c4ccccc43)n2)cc1 (stereo not given) | 0.4 µg/mL (≈ 1.24 µM)
CCCCC(=O)Nc1ccc(C(=O)N(CC)c2ccccc2C)cc1 | 7.9 µg/mL (≈ 23.3 µM)
N#C/C(=C\c1c[nH]c2ccc(Br)cc12)c1ccccn1 | 0.8 µg/mL (≈ 2.47 µM)
CC(=O)c1c(Cl)nc2cccc3c2c1-c1ccccc1C3=O | < 0.7 µg/mL

SMILES | solubility kinetic
Cc1onc(-c2c(Cl)cccc2Cl)c1C(=O)Nc1ccc(Cl)cn1 | 3.9 µg/mL (≈ 10.2 µM)
CCNC(=O)COC(=O)CCNC(=O)c1cccc(C)c1 | 35.1 µg/mL (≈ 120 µM)
O=C(Nc1cccnc1)c1ccccc1-c1ccccc1 | > 41.1 µg/mL
O=C(Nc1ccc2oc(-c3ccncc3)nc2c1)c1ccccc1 | < 0.2 µg/mL
CC(=O)c1ccc(NC(=O)C(C)O/N=C(\N)c2ccccc2)cc1 (stereo not given) | 45.5 µg/mL (≈ 140 µM)
S=C(NCc1ccco1)N/N=C/c1ccncc1 | > 39 µg/mL
COc1ccc(C(=O)Nc2ccc(Nc3ccccc3)cc2)cc1[N+](=O)[O-] | < 0.3 µg/mL
CCCC12CN3CC(C)(CN(C1)C3c1cccs1)C2=O (stereo not given) | 39.1 µg/mL (≈ 135 µM)
Cc1ccc(C(=O)Nc2scc(-c3ccccc3)c2C(=O)O)cc1 | > 50.6 µg/mL
C/C(=N\O)c1ccc(Cl)cc1Cl | 22.9 µg/mL (≈ 112 µM)
COc1ccccc1CNC(=O)C12CC3CC(CC(C3)C1)C2 | 2.3 µg/mL (≈ 7.68 µM)
O=C(NCCCCc1ccccc1)c1ccccc1Br | 8.6 µg/mL (≈ 25.9 µM)
CC(C)Oc1ccccc1NC(=O)CSc1nccn1C | > 45.8 µg/mL
CCOC(=O)N1CCN(C(=O)CSc2nc3nc(C)cc(C)n3n2)CC1 | > 56.8 µg/mL
O=[N+]([O-])c1cccc2c1ccc1ncccc12 | 1.3 µg/mL (≈ 5.8 µM)
Cc1c(C=O)c2ccccc2n1Cc1ccccc1F | 20.4 µg/mL (≈ 76.3 µM)
COC(=O)C1(NC(=O)NC2CCCCC2)CCCCC1 | > 42.4 µg/mL
Brc1ccc2c(c1)[C@H]1OCC[C@H]1[C@@H](c1cccs1)N2 | 1.4 µg/mL (≈ 4.16 µM)
O=C(CN1CCOCC1)Nc1ccc(NC(=O)c2ccccc2F)cc1 | > 53.6 µg/mL
COc1ccccc1CNc1ncnc2cc(OC)c(OC)cc12 | 13 µg/mL (≈ 40 µM)
COc1ccc(NC(=O)c2cncn2-c2ccccc2)cc1 | 42.6 µg/mL (≈ 145 µM)

Further lines, results first:

solubility kinetic | SMILES
39.5 µg/mL (≈ 139 µM) | Cc1[nH]c2c(C)cccc2c(=O)c1CN1CCCCCC1
14.6 µg/mL (≈ 44 µM) | CC1CC(C)(C)NC(=S)N1CCC(=O)N1CCc2ccccc21 (stereo not given)
19.5 µg/mL (≈ 58.5 µM) | CN(C(=O)c1cccc(C(F)(F)F)c1)C1CCCc2ccccc21 (stereo not given)
40 µg/mL (≈ 135 µM) | COc1ccc(-c2cccc(C(=O)N3CCOCC3)c2)cc1
3.6 µg/mL (≈ 9.91 µM) | Cc1ccc(C2(C)NC(=O)N(CC(=O)N3CCc4ccccc43)C2=O)cc1 (stereo not given)
10.2 µg/mL (≈ 33.9 µM) | CCc1nc(C(N)=O)c2[nH]c(=O)n(-c3ccccc3F)c2n1
5.9 µg/mL (≈ 23.2 µM) | CN1C(=O)c2cccc3c(N(C)C)ccc(c23)C1=O
> 39.8 µg/mL | O=C(NCCN1CCCCC1)Nc1cccc(F)c1
8.1 µg/mL (≈ 28.9 µM) | N/C(=N\OC(=O)C1CCCCC1)c1ccc(Cl)cc1
6.1 µg/mL (≈ 18.7 µM) | Cc1ccc(SCc2ccc(C(=O)N3CCCCC3)cc2)cc1
31.6 µg/mL (≈ 114 µM) | COc1cccc(CNC2CCCCCCC2)c1OC
> 41 µg/mL | O=C1CCCc2c1nc(-c1ccc([N+](=O)[O-])cc1)n2O
37.3 µg/mL (≈ 131 µM) | COc1cc2c(cc1OC)C(c1ccccc1O)NCC2 (stereo not given)
39.2 µg/mL (≈ 121 µM) | CCC1CCCCN1CC(C)(C)NS(=O)(=O)c1ccccc1 (stereo not given)
49.4 µg/mL (≈ 129 µM) | OCCOCCN1CCN(C2=Nc3ccccc3Sc3ccccc32)CC1
3.9 µg/mL (≈ 13.1 µM) | Cc1cccc2cc(/C=C/C(=O)c3ccco3)c(Cl)nc12
39.2 µg/mL (≈ 145 µM) | Cc1ccc(NC(=S)NCc2ccccc2)c(C)c1
34.3 µg/mL (≈ 112 µM) | Cn1cnc(S(=O)(=O)N2CCN(c3ccccc3)CC2)c1
